From PubChem BioAssay (NCI)
Several values for one entry are separate records, joined by “and”; a condition that tells them apart may be missing. Equal values may be shown once.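 1) Cells in 96-well plates. 2) Compound, 48 h, 5 concentrations. 3) Linear interpolation between surrounding doses. 4) Unreached endpoint = highest concentration. Abbreviation: GI50, concentration required for 50% inhibition of growth. TGI: concentration producing complete growth inhibition.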

Key:
Assay in all cases: inhibition of tumour cell growth, NCI panel, 48 h
[1] = system: HCC-2998 colon
[2] = system: KM12 colon
[3] = system: HCT-116 colon
[4] = system: HOP-92 NSCLC
[5] = system: CCRF-CEM leukemia
[6] = system: SK-MEL-5 melanoma
[7] = system: MDA-MB-231 breast
[8] = system: HS 578T breast
[9] = system: HOP-62 NSCLC
[10] = system: HL-60(TB) leukemia

Compound	GI50 [1] [µM]	TGI [1]	GI50 [2] [µM]	TGI [2]	GI50 [3] [µM]	TGI [3]	GI50 [4] [µM]	TGI [4]	GI50 [5] [µM]	TGI [5] [µM]	GI50 [6] [µM]	TGI [6]	GI50 [7] [µM]	TGI [7] [µM]	GI50 [8] [µM]	TGI [8] [µM]	GI50 [9] [µM]	TGI [9]	GI50 [10] [µM]	TGI [10]
O=C(c1ccccc1)c1c(NCC(O)CN2CCOCC2)n(Cc2ccccc2)c(=O)n(Cc2ccccc2)c1=O (configuration not stated)	1.26	4.86 µM	40.4	> 100 µM	34.1	> 100 µM	17.9	70.8 µM	41.3	> 100	33.4	> 100 µM	28.8	> 100	55	> 100	96.9	> 100 µM		
Cc1cc(O)c(C2=NN(c3ccc(S(N)(=O)=O)cc3)C(c3ccc(Cl)cc3)C2)c(C)c1Cl (configuration not stated)	6.48	19.1 µM	2.8	10.6 µM	3.47	12.9 µM	3.74	17.6 µM	3.64	13.5	9.59	21.4 µM	2.34	11.8	3.45	20	10.4	23.3 µM	7.84	20.8 µM
c1cncc(CNCc2cccnc2)c1				> 100 µM		> 100 µM		> 100 µM		> 100		> 100 µM		> 100		> 100		> 100 µM		> 100 µM
CN(C)c1nc2ccccc2c2c1c1c(n2Cc2ccccc2)-c2ccccc2C1=O			> 100	> 100 µM	8.79	> 100 µM	13	> 100 µM	62.7	> 100	39.1	> 100 µM	> 100	> 100		75.9	> 100	> 100 µM	91.6	> 100 µM
O=C(Oc1ccc(CO[N+](=O)[O-])cc1)c1ccccc1	0.201	0.447 µM	0.163	0.33 µM	0.101	0.241 µM	0.151	0.313 µM	0.0324	0.173	0.474	1.73 µM	0.144	0.306	0.0911	0.422	0.161	0.316 µM	0.0514	0.267 µM
CC(C)=CCC(OC(=O)C=C(C)C)C1=CC(=O)c2c(O)ccc(O)c2C1=O (configuration not stated)	12.7	26.7 µM and 6.44 µM	6.61	23.9 µM and 6.52 µM	0.63	2.68 µM and 1.04 µM	0.365	1.38 µM and 1.29 µM	0.0241		4.15	14.4 µM and 1.59 µM	1.63	3.89	14.3	65.2		25.7 µM and 24.4 µM		1.09 µM and 0.79 µM
CSCCCNC(=O)c1ccc2c(c1)/C(=C/c1[nH]c(C)cc1C)C(=O)N2	4.95	> 100 µM	0.43	> 100 µM	0.548	> 100 µM	1.03	> 100 µM	4.36	> 100	1.57	> 100 µM	2.87	> 100	0.853	> 100	0.286	> 100 µM	2.54	> 100 µM
Cc1nc(Nc2ccccn2)sc1C(=O)/C=C/c1ccc(Cl)cc1	0.383	9.62 µM	0.377	15.9 µM	0.381	> 51.8 µM	1.21	31.4 µM	0.445	> 100	0.339	1.43 µM	0.366	3.58	0.398	> 100	0.574	> 100 µM	0.353	
C=C1CCC2(C#N)[C@H]3[C@H](CC[C@@H]2C)[C@@H](C)C[C@@H](CC(C)(C)NC(=O)CN2CCC2=O)[C@H]13 (some centres not stated)	7	22.8 µM	3.36	15 µM	3.43	16.2 µM	3.12	27.5 µM	12.8	80.3	4.24	16.2 µM	7.97	44.3	4.79	30.7	12.3	29 µM	5.05	37 µM
O=P1(S)OC[C@H]2O[C@@H]3[C@H](F)[C@@H]2OP(O)(=S)OC[C@H]2O[C@H]([C@H](F)[C@@H]2O1)n1cnc2c(ncnc21)NC/C=C/CNc1ncnc2c1ncn23 (some centres not stated)	> 100	> 100 µM	> 100	> 100 µM	> 100	> 100 µM		> 100 µM	> 100	> 100	> 100	> 100 µM	> 100	> 100	> 100	> 100	> 100	> 100 µM	0.365	
Cc1ccc(S(=O)(=O)c2nc(-c3ccccc3)oc2S(C)=O)cc1 (configuration not stated)	16.4	30.4 µM	1.95	3.86 µM	1.49	2.89 µM	1.38	2.77 µM	2.77	8.08			1.47	2.87	5.27	40	6.87	20.3 µM	1.52	4.71 µM
CC1=Nc2ccccc2/C1=C\c1c(C)[nH]c2ccccc12		30.1 µM		26 µM		24.2 µM		17.4 µM		> 100		28.1 µM		33.3		47.2		69.7 µM		50.2 µM
CCOc1c(N=Nc2ccccc2Cl)c(-c2ccccc2)nn1C(=S)S				> 100 µM		> 100 µM		> 100 µM				57.9 µM		56.5		75.4		> 100 µM		> 100 µM
O=c1[nH]c2nc(NC3CCOCC3)ncc2cc1Oc1ccc(F)cc1F	> 25	> 25 µM	> 25	> 25 µM	> 25	> 25 µM	> 25	> 25 µM			> 25	> 25 µM	> 25	> 25	> 25	> 25	> 25	> 25 µM	> 25	> 25 µM
